From US20250051355A1, “COMPOUNDS, COMPOSITIONS, AND METHODS” (ACONCAGUA BIO, INC., priority 2023, published 2025)

The molecules below were run against human calcitonin receptor (CTR) and RAMP3 (AMY3) (Homo sapiens, UniProt O60896+P30988) (assay: Amylin Receptor cAMP Assay I). Conditions: COS-7/AMY3 cells, cAMP Hi-range Kit, read-out: Amylin Receptor cAMP Stimulation Activity: EC50.
Chain of human calcitonin receptor (CTR) and RAMP3 (AMY3) (O60896 24-148): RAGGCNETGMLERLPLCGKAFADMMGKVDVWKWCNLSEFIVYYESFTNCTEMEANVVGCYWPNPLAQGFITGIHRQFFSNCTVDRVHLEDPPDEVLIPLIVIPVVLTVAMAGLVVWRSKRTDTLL
Chain of human calcitonin receptor (CTR) and RAMP3 (AMY3) (P30988 25-474): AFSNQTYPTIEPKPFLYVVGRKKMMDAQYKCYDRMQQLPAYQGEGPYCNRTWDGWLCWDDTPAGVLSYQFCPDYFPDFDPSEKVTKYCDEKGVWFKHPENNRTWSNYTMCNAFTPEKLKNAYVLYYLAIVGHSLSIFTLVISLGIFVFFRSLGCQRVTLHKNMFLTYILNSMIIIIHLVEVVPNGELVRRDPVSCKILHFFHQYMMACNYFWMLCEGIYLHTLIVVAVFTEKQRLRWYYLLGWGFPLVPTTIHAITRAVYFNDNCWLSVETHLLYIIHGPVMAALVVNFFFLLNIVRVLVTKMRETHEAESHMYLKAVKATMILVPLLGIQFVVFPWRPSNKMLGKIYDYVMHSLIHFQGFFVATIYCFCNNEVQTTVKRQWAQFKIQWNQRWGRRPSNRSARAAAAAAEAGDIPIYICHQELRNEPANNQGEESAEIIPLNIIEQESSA
Format: cell-based
Description: Amylin Receptor cAMP Assay I
AMYRs are heterodimers of the class B calcitonin (CT) G-protein-coupled receptor (CTR) and receptor activity-modifying proteins (RAMPs). All three RAMPs can interact with the CTR and form AMY1, AMY2, AMY3 with RAMP1, RAMP2 and RAMP3, respectively. Like other class B1 GPCRs, the CT receptor family is canonically coupled to Gs-mediated cAMP production, and measurement of cAMP accumulation has been the primary assay used to determine peptide selectivity and potency.
To optimize functional activity directed toward Gas coupling, COS-7 cells were stably transfected with human calcitonin receptor (CTR) and RAMP3, simultaneously. 100×concentration of compound working solutions were prepared (Agilent Technologies Bravo) with 4-fold serial dilution in 384-well Echo LDV plate (Labcyte, Cat #LP-0200). 100 nL/well 100× concentration of compound working solutions were moved to 384-well white low volume plate (Greiner, Cat #784075) using Labcyte ECHO550. 1×10^5 cells/mL COS-7/CTR or COS-7/AMY3 (HD Biosciences) cell suspensions prepared with assay buffer [DPBS containing 0.5 mM IBMX (Sigma, Cat #15879) and 0.1% BSA (GENVIEW, Cat #FAO16-100 g)], 10 μL cell suspensions were added to each well of previous generated assay plate which already contains 100 nL compound at 100× concentration using ThermoFisher Multidrop Combi (1000 cells/well). Seal the plate and incubate at 37° C. with 5% CO2 for 30 min.
After incubation, the cAMP assay signal was generated using cAMP Hi-range Kit (Cisbio). 5 μL cAMP-d2 working solution was added to each well, followed by 5 μL Anti-cAMP antibody-cryptate working solution which was added to each well using ThermoFisher Multidrop Combi. The samples were then incubated at room temperature for 1 hour protected from light. the fluorescence was read at 665 and 615 nm with Reader PerkinElmer EnVision.
In the case of Cc1nnc(-c2c(CCOC(C)C)nc3c(c2-c2ccc(C(=O)NCc4ccc(F)c(F)c4)s2)C(=O)N2CCC[C@@H]32)o1 [Compound 35, (S)—N-(3,4-difluorobenzyl)-5-(2-(2-isopropoxyethyl)-3-(5-methyl-1,3,4-oxadiazol-2-yl)-5-oxo-7,8,9,9a-tetrahydro-5H-pyrido[2,3-a]pyrrolizin-4-yl)thiophene-2-carboxamide], the EC50 is reported as > 100 nM. With Cc1nnc(-c2c(CCc3ccc(F)cc3)nc3c(c2-c2cc4ccnc(NCc5ccc(F)c(F)c5)c4s2)C(=O)N2CCC[C@@H]32)o1 [Compound 40, (S)-4-(7-((3,4-difluorobenzyl)amino)thieno[2,3-c]pyridin-2-yl)-2-(4-fluorophenethyl)-3-(5-methyl-1,3,4-oxadiazol-2-yl)-7,8,9,9a-tetrahydro-5H-pyrido[2,3-a]pyrrolizin-5-one] the EC50 was 20.2 nM. For Cc1cnc(-c2c(CCc3ccc(F)cc3)nc3c(c2-c2cc4ccnc(NCc5ccc(F)c(F)c5)c4s2)C(=O)N2CCC[C@@H]32)o1 [Compound 41], the EC50 was 22.8 nM. Cc1nnc(-c2c(CCc3cnn(C)c3)nc3c(c2-c2ccc(C(=O)NCc4ccc(F)c(F)c4)s2)C(=O)N2CCC[C@@H]32)o1 [Compound 43, (S)—N-(3,4-difluorobenzyl)-5-(3-(5-methyl-1,3,4-oxadiazol-2-yl)-2-(2-(1-methyl-1H-pyrazol-4-yl)ethyl)-5-oxo-7,8,9,9a-tetrahydro-5H-pyrido[2,3-a]pyrrolizin-4-yl)thiophene-2-carboxamide] was tested, and the EC50 was 1880 nM. Cc1nnc(-c2c(CC3(c4ccc(F)cc4)CC3)nc3c(c2-c2ccc(C(=O)NCc4ccc(F)c(F)c4)s2)C(=O)N2CCC[C@@H]32)o1 [Compound 49, (S)—N-(3,4-difluorobenzyl)-5-(2-((1-(4-fluorophenyl)cyclopropyl)methyl)-3-(5-methyl-1,3,4-oxadiazol-2-yl)-5-oxo-7,8,9,9a-tetrahydro-5H-pyrido[2,3-a]pyrrolizin-4-yl)thiophene-2-carboxamide] was tested, and the EC50 was 382 nM. Cc1nnc(-c2c(CCc3ccc(F)cc3)nc3c(c2-c2ccc(C(=O)NCc4ccc(F)c(F)c4)s2)C(=O)N2CC[C@H](O)[C@@H]32)o1 [Compound 50, N-(3,4-difluorobenzyl)-5-((9S,9aR)-2-(4-fluorophenethyl)-9-hydroxy-3-(5-methyl-1,3,4-oxadiazol-2-yl)-5-oxo-7,8,9,9a-tetrahydro-5H-pyrido[2,3-a]pyrrolizin-4-yl)thiophene-2-carboxamide] showed an EC50 of 129 nM. Cc1nnc(-c2c(CC(O)c3ccc(F)cc3)nc3c(c2-c2ccc(C(=O)N[C@@H]4CCc5ccccc54)s2)C(=O)N2CCC[C@@H]32)o1 (stereo partly drawn) [Compound 51, N-[(1R)-2,3-dihydro-1H-indenyl]-5-[(9aS)-2-[2-(4-fluorophenyl)-2-hydroxyethyl]-3-(5-methyl-1,3,4-oxadiazol-2-yl)-5-oxo-7,8,9,9a-tetrahydro-5H-pyrido[2,3-a]pyrrolizin-4-yl]thiophene-2-carboxamide] was tested, and the EC50 was 551 nM. For Cc1nnc(-c2c(CC(F)c3ccc(F)cc3)nc3c(c2-c2ccc(C(=O)N[C@@H]4CCc5ccccc54)s2)C(=O)N2CCC[C@@H]32)o1 (stereo partly drawn) [Compound 52], the EC50 was 126 nM. Molecule Cc1nnc(-c2c(CCc3ccc(F)cc3)nc3c(c2-c2cc4ccnc(NCc5ccc(F)c(F)c5)c4s2)C(=O)N2CCCC32O)o1 (stereo not drawn) [Compound 53] has an EC50 of 13.1 nM. For Cc1cnc(-c2c(CCC3CCOCC3)nc3c(c2-c2ccc(C(=O)NCc4ccc(F)c(F)c4)s2)C(=O)N2CCC[C@@H]32)o1 [Compound 57], the EC50 was 113 nM. Cc1nnc(-c2c(CCC3CCOC(C)(C)C3)nc3c(c2-c2ccc(C(=O)NCc4ccc(F)c(F)c4)s2)C(=O)N2CCC[C@@H]32)o1 (stereo partly drawn) [Compound 66, N-(3,4-difluorobenzyl)-5-((9aS)-2-(2-(2,2-dimethyltetrahydro-2H-pyran-4-yl)ethyl)-3-(5-methyl-1,3,4-oxadiazol-2-yl)-5-oxo-7,8,9,9a-tetrahydro-5H-pyrido[2,3-a]pyrrolizin-4-yl)thiophene-2-carboxamide] gave an EC50 of 975 nM. Cc1nnc(-c2c(CCC3CCOCC3)nc3c(c2-c2cc4ccnc(N[C@@H]5CCc6cc(F)ccc65)c4s2)C(=O)N2CCC[C@@H]32)o1 [Compound 71] gave an EC50 of 27.8 nM.
